{"source": "paper PMC13050480", "about": "“Preclinical Development of GT-14, a Novel Inhibitor of Gαi2 Protein: Comprehensive Evaluation of Physicochemical, Metabolic Characteristics and Tissue Distribution” (The AAPS journal, 2025)", "system": "liver microsomes", "test": "Phase II glucuronidation reaction with liver microsomes", "assay_type": "in vitro ADME", "details": "UDPGA, 2 h", "procedure": "The in vitro phase II glucuronidation reaction was carried out using a published protocol that involves the use of uridine diphosphate glucuronic acid (UDPGA) as cofactor, saccharolactone as beta-glucuronidase inhibitor to drive the forward reaction to release the metabolite, potassium phosphate buffer (KPI) to mimic physiological conditions, and alamethicin as a surfactant for the response. The components were pipetted into microcentrifuge tubes in the following order: GT-14 testing solution in KPI (pH 7.4), solution B (25 mM saccharolactone and 5 mM magnesium chloride), solution A (25 mM uridine diphosphate glucuronic acid and potassium chloride), microsome. Samples (100 μL) were taken at 2 h. The reaction was terminated with 50 μL of solution containing 0.6% formic acid in acetonitrile + internal standard (rutin) at each time point and vortexed for 1 min. The samples were then centrifuged at 14,000 rpm for 15 min. The supernatant (100 μL) was then collected and loaded into the UPLC for analysis."}
{"smiles": "C/C(=N\\c1ccc(O)cc1)c1cc2ccccc2n1C", "note": "[GT-14, (E)-4-((1-(1-methyl-1H-indol-2-yl)ethylidene)amino)phenol]", "values": [{"measurement": "Phase II glucuronidation (UPLC peaks)", "value": "no additional peaks were observed"}]}
